Assay results taken from patent US10980769B2, “Tiglien-3-one derivatives” (QBIOTICS PTY LTD, priority 2005, dated 2021).
“Also recorded” adds a separate entry of the source.

Columns and labels:
Stability = format: physicochemical
Text: This instability was observed upon nitrogen evaporation but not while in acetonitrile/water solution at room temperature or on vacuum evaporation. To avoid decomposition the equivalent four bands of active metabolites from the second preparative HPLC were individually back extracted in the ethyl acetate and evaporated under vacuum. Analytical HPLC of these samples confirmed minimal decomposition.
[…] The structure has no readily reactive groups which might otherwise confer instability.

Haemonchus contortus = experiment: NemaTOX (Ne) anthelmintic larval development bioassay
Description: NemaTOX (alternatively referred to herein as Ne) is an anthelmintic bioassay, applicable to all parasitic nematodes with free-living life cycle stages, and can be used as a screen to detect activity and define the species spectrum of compounds against parasitic nematodes and examine the impact of pre-existing resistance to other anthelmintic classes on potency. Haemonchus contortus was utilised for this assay.
The effect on larval development was determined in this assay by the method described by Gill et al. (1995) Int. J. Parasitol. 25: 463-470. Briefly, in this assay nematode eggs were applied to the surface of an agar matrix containing the test sample and allowed to develop through to the L3, infective stage (6 days). At this time the stage of larval development reached and any unusual features (deformity, paralysis, toxicity) were noted by microscopic examination.

[1] = tested on: Mouse squamous cell carcinoma K-2; experiment: Growth inhibition of cultured cells; format: cell-based
Description: (§1) Briefly, a range of tumour cells including mouse melanoma, human melanoma, mouse squamous cell carcinoma, human breast, human colon, human leukemia and human lung and normal human cells including normal human fibroblasts were seeded at 2-5,000 per microtitre well (96-well plate) in 10% FCS-RPMI 1640 culture medium, treated, and allowed to grow until the controls were nearly confluent (5-6 days). The wells were then washed twice with PBS, fix with ethanol for a minimum of 5 minutes and washed with water. SRB solution (50 μL of 0.4% in 1% acetic acid) was added and left at room temperature for a minimum of 15 minutes. The plate was washed rapidly with tap water and then twice with 1% acetic acid. After addition of 100 μL/well of 10 mM Tris base (unbuffered, pH>9), plates were left for a minimum of 5 minutes, then the absorbance was read at 564 nm on the ELISA reader, with a 3 second prior shaking. After subtraction of a blank (wells with no cells, absorbance typically about 0.04), growth inhibition was calculated as % of the untreated control and plotted against dose.
(§2) Briefly, a suspension of a range of tumour cells including mouse melanoma, human melanoma, mouse squamous cell carcinoma, human breast, human colon, human leukemia and human lung and normal human cells including normal human fibroblasts were seeded into round-bottom microtitre plates in 10% FCS-RPMI 1640 culture medium, treated and allowed to grow for 5-6 days. To measure cell growth, 20 μL of a combined MTS/PMS solution (Promega Cell ProliferationAssay Kit Cat #G5430) was added to each well of the 96 well assay plate. After 1-4 hours the plates were placed in the ELISA plate reader and the absorbance read at 490 nm. After subtraction of a blank (wells with no cells, absorbance typically about 0.4), growth inhibition was calculated as % of the untreated control and plotted against dose.

mouse melanoma B16 = experiment: Growth inhibition of cultured cells; format: cell-based
Description: as §1, §2

Human melanoma SKMel-5 = experiment: Growth inhibition of cultured cells; format: cell-based
Description: as §1, §2

[2] = tested on: K562 leukemia, MCF-7 breast cancer, Colo-205 colon cancer and D04 and SKMel-5 melanoma; experiment: In vitro growth inhibition profile, sensitive versus other cell lines; format: cell-based, human
Description: In addition, scattering of MCF-7 and HT-29 colon tumour cells was observed, typical of PKC activators. […] Additionally, given their similarity in structure, EBI-47, EBI-59 and EBI-61 are also considered to be protein kinase C activators.
For growth inhibition assays, cells (2000-5000/well) were seeded in 96-well plates in duplicate, treated with drug next day and allowed to grow for a further 5-6 days. The plates were then washed in PBS (phosphate buffered saline, pH 7.2), fixed with ethanol and stained by addition of 50 μL 0.4% SRB (sulforhodamine) in 1% acetic acid. The plate was left at room temperature for a minimum of 15 minutes, then washed rapidly with tap water and then twice with 1% acetic acid. After addition of 100 μL/well of 10 mM Tris base (unbuffered, pH>9), plates were left for a minimum of 5 minutes, then the absorbance was read at 564 nm on the ELISA reader, with a 3 second prior shaking. After subtraction of a blank (wells with no cells, typically about 0.04), growth inhibition was calculated as % of the untreated control and plotted against dose. […]

MCF-7 = experiment: Cell scattering of cultured cells; format: cell-based, human
LK2 mouse SCC = experiment: Topical treatment of LK2 mouse SCC tumours in nude mice; format: in vivo
Description: Tumour cells were injected subcutaneously (2 million cells/site in 50 μL culture medium for LK2 cells, 0.5 million for B16) into 4 sites each on the flanks of nude mice (for LK2 cells) or C57BL/6 mice (B16 mouse melanoma cells). When tumours became visible (2-4 mm diameter) five to 10 days after injection of cells, 37 μg of EBI-46 in 25 μL, of isopropanol gel was applied to each tumour site, each day for 3 days. Tumour size was measured with calipers at appropriate intervals.
Animal experiments were conducted under Queensland Institute of Medical Research (QIMR) Animal Ethics Committee approvals. The B16 mouse melanoma model was obtained by injecting 0.5 million B16 mouse melanoma cells subcutaneously into each of the 2 flanks of a male C57BL/6 mouse. The human tumour xenografts were obtained by injecting 2 million of the respective tumour cell line into each of 4 sites on the flanks of male nude mice (BALB/c background). EBI-46 was applied: (a) topically by dilution of a concentrated solution in acetone into an isopropanol gel, once a day for 3 days; (b) intralesionally by injection into the tumour of drug dissolved in 25% propylene glycol-0.1 M saline, (c) systemically by injection intraperitoneally in 25% propylene glycol in 0.1 M saline. Tumour size was measured with electronic callipers in mm and converted to volume (cubic mm) using the formula: Tumour volume=length×breadth×breadth/2. Results
The above was repeated using the UVB-induced mouse squamous cell carcinoma (SCC) grown on nude mice (FIG. 6) and treated with partially-purified EBI-46.
The most recent experiment with topical application used 2 different doses of EBI-46 (FIG. 7). The low dose was 100 μg/site and the high dose was 350 μg/site/treatment.

MM96L cell line = experiment: Changes in morphology of cultured cells; format: cell-based, human
normal skin = experiment: Inflammatory response of skin; conditions: in vivo

C/C=C(\C)C(=O)OC1C(C)C2(O)C(C3OC3(CO)C(O)C3(O)C(=O)C(C)=CC32)C2C(C)(C)C12OC(=O)C(C)CC (stereo not drawn) [EBI-46, 12-tigloyl-13-(2-methylbutanoyl)-6,7-epoxy-4,5,9,12,13,20-hexahydroxy-1-tiglian-3-one]
stability of solution (Stability; 25% propylene glycol-saline at 4° C.): stable for weeks
stability by HPLC (Stability; PEG 400 containing 10% ethanol held at 37° C.): confirmed
stability of solutions (Stability; in ethanol, 4° C. for 4 weeks): retain bioactivity
Ne Titre (Haemonchus contortus): 2
Ne LD99 (Haemonchus contortus; Table 6a, last well with activity, real value may be lower): 31 pg/mL
Concentration of EBI-46 at which growth inhibition was observed [1]: <100 ng/mL
Concentration of EBI-46 at which growth inhibition was observed (mouse melanoma B16): =/<2 μg/mL
Concentration of EBI-46 at which growth inhibition was observed (Human melanoma SKMel-5): <100 ng/mL
growth-inhibiting doses in sensitive cell lines lower than for other human tumour cell lines and normal human fibroblasts [2]: approximately 100 fold
scattering of MCF-7 cells (MCF-7): cell scattering
tumours cured and healed without scarring (LK2 mouse SCC; 37 ug/site in isopropanol gel once a day for 3 days, nude mice): without scarring of 3 out of 4
systemic toxicity or lung metastases on post mortem (LK2 mouse SCC; 37 ug/site once a day for 3 days): no signs of systemic toxicity
tumour growth inhibition result (LK2 mouse SCC; high dose 350 μg/site/treatment): excellent result
change in morphology of MM96L cells (MM96L cell line): characteristic change to bipolar morphology; also recorded: extreme bipolar morphology
effect on skin (normal skin): can cause inflammation of skin; also recorded: causes an inflammatory response in normal skin
